Data as given in patent US9856225B2, “Substituted phenazines as antimicrobial agents” (University of Florida Research Foundation, Incorporated, priority 2013, dated 2018).
Several values for one entry are separate records, joined by “and”; a condition that tells them apart may be missing. Equal values may be shown once. Entries after “also recorded” stand apart in the source; their conditions may differ. Read-outs that look alike come from different tables or passages of the source. Marks after values point to notes of the source that are not given here.

How the values were obtained:
Format in all cases: cell-based
[1] = system: Staphylococcus aureus (ATCC 25923); assay: MIC broth microdilution (CLSI), Luria Broth
Description: (§1) Antibiotic Susceptibility Tests (MIC Assay Protocol). The minimum inhibitory concentration (MIC) for each compound described herein was determined by the broth microdilution method as recommended by the Clinical and Laboratory Standards Institute (CLSI) (Clinical and Laboratory Standards Institute. 2009. Methods for dilution antimicrobial susceptibility tests for bacteria that grow aerobically; approved standard, eighth edition (M7-A8)). In a 96-well plate, eleven two-fold serial dilutions of each compound were made in a final volume of 100 μL Luria Broth (one column served as a blank; see the MIC assay described herein). Each well was inoculated with 10^5 bacterial cells at the initial time of incubation, prepared from a fresh log phase culture (OD600 of 0.5). […] The concentration range tested for each compound during this study was 0.10 to 100 μM. DMSO served as the vehicle and negative control in each microdilution MIC assay. DMSO was serially diluted at the same concentration as the compounds with a top concentration of 1% v/v. Bacterial strains used: Staphylococcus aureus (ATCC 25923), Staphylococcus epidermidis (ATCC 12228) and Pseudomonas aeruginosa (PAO1). Kanamycin was used as a positive control against Staphylococcus aureus and Staphylococcus epidermidis.

[2] = system: Staphylococcus aureus (ATCC 25923) biofilm; assay: Biofilm inhibition, crystal violet staining; parameters: MIC/IC50 Biofilm: unit not given here; details: for IC50: Staphylococcus aureus; for MIC/IC50 Biofilm: ratio of MIC to IC50 of biofilm inhibition; for Phenotype: planktonic growth vs biofilm formation
Description: Biofilm Inhibition Protocol for S. aureus (ATCC 25923). A serial two-fold dilution of 2× bromophenazine small molecule concentration was made in 100 μL tryptic soy broth (TSB) medium with 0.5% glucose were delivered into 0.1% gelatin (Millipore) coated 96-well tissue culture plates. […] To each well, 100 μL of TSB with 0.5% glucose containing 2×10^6 CFU/mL Staphylococcus aureus cells, prepared from fresh culture (OD600 of 0.8), was added. The plates were incubated at 37° C. for 24 hours. The wells were gently rinsed by submerging the entire plates in a tub of cold, running tap water. The wells were then fixed with 200 μL methanol for 15 minutes. After the plates were air dried, the biofilms were stained with 100 μL of 1% crystal violet for 10 minutes. The plates were again rinsed with running water. After drying in air, quantitative assessment of biofilm formation was obtained by extracting the crystal violet associated with the remaining biofilm with 100 μL per well of the following bleaching solution (methanol:glacial acetic acid:water (v/v/v)=4:1:5). This bleaching solution dissolved the bound crystal violet and produced a violet-colored solution in each well. The intensity of coloration was determined by measuring the absorbance at 540 nm.

[3] = system: Acinetobacter baumannii (ATCC 19606) biofilm; assay: Biofilm inhibition, Mueller-Hinton broth, crystal violet; details: for inhibition at 100 µM: Acinetobacter baumannii
Description: (§2) Biofilm Inhibition Protocol for A. baumannii (ATCC 19606): In a 96-well plate, ten two-fold serial dilutions of each compound tested were made from the highest concentration tested (100 μM) in a final volume of 100 μL in Mueller-Hinton broth (one column served as a blank). Each well was inoculated with ˜7×10^6 colony forming units per milliliter (corresponding to an OD600 of 0.01 prepared directly from an overnight culture). A lid was placed on the 96-well plate which was wrapped in suran wrap, placed in a humidifying chamber and incubated under static conditions at 37° C. for 24 hours. Following incubation, the media and planktonic bacteria were then removed from 96-well plates and the wells were then washed with water. The bacterial biofilms within the microtiter wells were stained with 200 μL of an aqueous 0.1% crystal violet solution that was allowed to stand for 10-20 minutes. The crystal violet stain was then removed, the wells were rinsed with water and dried. The crystal violet stain that remained on the inside of the wells (i.e., stained bacterial biofilm) on the inside of the wells was solubilized by the addition of 200 μL ethanol and absorbance was read at OD540 using a spectrophotometer. NOTE: The concentration range tested for each compound was 0.2-100 μM. Single data points for all compounds and DMSO controls were tested in two replicate rows in 96-well plates and corresponding absorbance readings were averaged for the quantification of planktonic growth and biofilm formation. Reported percent biofilm inhibition was determined by the comparison of compound treated wells (the average of the two replicate wells) versus vehicle control wells without compound following background subtraction (i.e., an empty, untreated well) and reported from 2 to 4 independent overnight cultures. DMSO was serially diluted at the same concentration as test compounds with a top concentration of 1% v/v.
(§3) The bromophenazines were also evaluated against the Gram-negative bacterium Acinetobacter baumannii in order to identify biofilm modulating small molecules against this emerging pathogen. Acinetobacter baumannii is notorious for its ability to persist as bacterial biofilms on hospital surfaces, giving rise to many multidrug-resistant nosocomial infections. Clinical isolates of A. baumannii have been identified that are resistant to every class of antibiotic clinically used. The bromophenazines were evaluated against Acinetobacter baumannii ATCC 19606 in biofilm inhibition assays. Bromophenazines were allowed to incubate in 96-well plates with Acinetobacter baumannii (˜7×10^6 CFUmL^−1 by adjusting an overnight culture to an OD600˜0.01) for 24 hours at 37° C. using Mueller-Hinton broth followed by spectrophometer readings of each plate to evaluate planktonic growth (OD600) and biofilm formation (OD540 after crystal violet stain of biofilms inside microtiter wells). […] This biofilm inhibition with activation of planktonic growth activity was dose-dependent with bromophenazine 17a (see FIG. 20).

[4] = system: Acinetobacter baumannii (ATCC 19606); assay: Planktonic growth (OD600) in biofilm inhibition assay; details: for increase in planktonic growth: OD600; for inhibition of growth at 100 µM: Acinetobacter baumannii, ATCC19606, 24 h, read-out: % Growth Inhibition at 100 μM
Description: as §2, with “Each” for “Biofilm Inhibition Protocol for A. baumannii (ATCC 19606): In a 96-well plate, ten two-fold serial dilutions of each compound tested were made from the highest concentration tested (100 μM) in a final volume of 100 μL in Mueller-Hinton broth (one column served as a blank). Each”, “NOTE: The concentration range tested for each compound was 0.2-100 μM.” left out
as §3

[5] = system: Staphylococcus epidermidis (ATCC 12228); assay: MIC broth microdilution (CLSI), Luria Broth; details: ATCC12228, Table 1, ATCC 12228, read-out: Staphylococcus epidermidis MIC
Description: as §1

[6] = Staphylococcus aureus, ATCC25923, Table 2, S. aureus ATCC 25923, Luria Broth, read-out: MIC
[7] = ATCC25923, S. aureus ATCC 25923, single replicate screen, read-out: Biofilm Inhibition IC50
[8] = ATCC19606, A. baumannii ATCC 19606, 100 μM, read-out: % Biofilm Inhibition at 100 μM
[9] = A. baumannii ATCC 19606, 100 μM, * = no growth inhibition at 200 μM
[10] = Staphylococcus aureus, ATCC25923, Table 1, ATCC 25923, range tested 0.10 to 100 μM, read-out: Staphylococcus aureus MIC
[11] = Staphylococcus aureus, ATCC25923, Table 1, ATCC 25923, read-out: Staphylococcus aureus MIC

O=C(/C=C/c1ccccc1)Oc1c(Br)cc(Br)c2nc3ccccc3nc12 [Compound 9a]
MIC [1, 6]: > 100 µM | IC50 [2, 7]: 14.8 µM | MIC/IC50 Biofilm ([2]; S. aureus ATCC 25923): >6.8 | inhibition at 100 µM [3, 8]: 52 ± 5% | increase in planktonic growth ([4]; 100 μM): ~15% | planktonic growth inhibition at 200 μM [4]: did not inhibit planktonic growth | inhibition of growth at 100 µM [4, 9]: -18 ± 4%

O=C(Oc1c(Br)cc(Br)c2nc3ccccc3nc12)c1ccc(C(F)(F)F)cc1 [Compound 16a]
Phenotype ([2]; S. aureus ATCC 25923): antibacterial | IC50 [2, 7]: 1.3 µM | MIC/IC50 Biofilm ([2]; S. aureus ATCC 25923): 9.6 | inhibition at 100 µM [3, 8]: 29 ± 11% | inhibition of growth at 100 µM [4, 9]: -3 ± 2%

O=C(Oc1c(Br)cc(Br)c2nc3ccccc3nc12)c1cc(C(F)(F)F)cc(C(F)(F)F)c1 [Compound 17a]
Phenotype ([2]; S. aureus ATCC 25923): antibacterial | IC50 [2, 7]: 1.1 µM | MIC/IC50 Biofilm ([2]; S. aureus ATCC 25923): 11.4 | inhibition at 100 µM [3, 8]: 60 ± 8% | increase in planktonic growth ([4]; 100 μM): ~15% | planktonic growth inhibition at 200 μM [4]: did not inhibit planktonic growth | inhibition of growth at 100 µM [4, 9]: -15 ± 3% | planktonic growth while biofilm formation is inhibited (in words) ([4]; Mueller-Hinton broth, FIG. 20): dose-dependent increases in planktonic growth

Cc1cc(C)c(C(=O)Oc2c(Br)cc(Br)c3nc4ccccc4nc23)c(C)c1 [Compound 19a]
MIC [1, 6]: > 100 µM | Phenotype ([2]; S. aureus ATCC 25923): inactive | IC50 [2, 7]: > 100 µM | inhibition at 100 µM [3, 8]: 44 ± 10% | increase in planktonic growth ([4]; 100 μM): ~15% | planktonic growth inhibition at 200 μM [4]: did not inhibit planktonic growth | inhibition of growth at 100 µM [4, 9]: -14 ± 2%

COc1ccc(C(=O)Oc2c(Br)cc(Br)c3nc4ccccc4nc23)cc1 [Compound 20a]
MIC [1, 6]: > 100 µM | IC50 [2, 7]: 0.95 µM | IC50 ([2]; ATCC25923, S. aureus, three independent experiments, read-out: Biofilm inhibition IC50 (triplicate)): 10.3 µM | MIC/IC50 Biofilm ([2]; S. aureus ATCC 25923): >105 | Phenotype ([3]; A. baumannii ATCC 19606): inactive | inhibition at 100 µM [3, 8]: 17 ± 5% | inhibition of growth at 100 µM [4, 9]: -6 ± 4%

O=C(Oc1c(Br)cc(Br)c2nc3ccccc3nc12)c1ccc2ccccc2c1 [Compound 21a]
MIC [1, 6]: > 100 µM | Phenotype ([2]; S. aureus ATCC 25923): inactive | IC50 [2, 7]: > 100 µM | inhibition at 100 µM [3, 8]: 35 ± 9% | increase in planktonic growth ([4]; 100 μM): ~15% | planktonic growth inhibition at 200 μM [4]: did not inhibit planktonic growth | inhibition of growth at 100 µM [4, 9]: -15 ± 6%

O=C(Oc1c(Br)cc(Br)c2nc3ccccc3nc12)c1ccc2c(c1)OCO2 [Compound 22a]
MIC [1, 6]: > 100 µM | IC50 [2, 7]: > 100 µM | inhibition at 100 µM [3, 8]: 29 ± 4% | inhibition of growth at 100 µM [4, 9]: -14 ± 5%

O=C(Oc1c(Br)cc(Br)c2nc3ccccc3nc12)c1ccc(F)cc1 [Compound 24, 2,4-Dibromophenazin-1-yl 4-fluorobenzoate]
MIC [1, 10]: 1.56 µM | MIC [1, 11]: 0.74 µg/mL | MIC [1, 6]: 1.56 µM | Phenotype ([2]; S. aureus ATCC 25923): antibacterial | IC50 [2, 7]: 2.44 µM | MIC/IC50 Biofilm ([2]; S. aureus ATCC 25923): 0.6 | inhibition at 100 µM [3, 8]: 35 ± 4% | inhibition of growth at 100 µM [4, 9]: -16 ± 6%

O=C(Oc1c(Br)cc(Br)c2nc3ccccc3nc12)c1cccs1 [Compound 24a]
MIC [1, 6]: > 100 µM | MIC ([1]; Table 2, S. aureus ATCC 25923, Luria Broth): >100** μM | Phenotype ([2]; S. aureus ATCC 25923): antibacterial; also recorded: antibacterial** | IC50 [2, 7]: 0.79 µM | MIC/IC50 Biofilm ([2]; S. aureus ATCC 25923): >127** | inhibition at 100 µM [3, 8]: 32 ± 8% | inhibition of growth at 100 µM [4, 9]: -10 ± 7%

CN(C)C(=O)Oc1c(Br)cc(Br)c2nc3ccccc3nc12 [Compound 25a]
MIC ([1]; Staphylococcus aureus, ATCC25923): > 100 µM | IC50 ([2]; ATCC25923, read-out: Biofilm Inhibition IC50): > 100 µM | inhibition at 100 µM ([3]; ATCC19606, read-out: % Biofilm Inhibition at 100 μM): 15 ± 1% | inhibition of growth at 100 µM [4]: -3 ± 1%

O=C(Oc1c(Br)cc(Br)c2nc3ccccc3nc12)C1CCCCC1 [Compound 26, 2,4-Dibromophenazin-1-yl cyclohexanecarboxylate]
MIC [1, 10]: > 100 µM | MIC [1, 11]: > 46.5 µg/mL | MIC [1, 6]: > 100 µM | Phenotype ([2]; S. aureus ATCC 25923): inactive | IC50 [2, 7]: > 100 µM | Phenotype ([3]; A. baumannii ATCC 19606): inactive | inhibition at 100 µM [3, 8]: 11 ± 1% | inhibition of growth at 100 µM [4, 9]: -25 ± 5%

O=C(Oc1c(Br)cc(Br)c2nc3ccccc3nc12)N(c1ccccc1)c1ccccc1 [Compound 26a]
MIC [1, 6]: > 100 µM | Phenotype ([2]; S. aureus ATCC 25923): inactive | IC50 [2, 7]: > 100 µM | inhibition at 100 µM [3, 8]: 40 ± 2% | inhibition of growth at 100 µM [4, 9]: -22 ± 8%

COc1c(Br)cc(Br)c2nc3ccccc3nc12 [Compound 27, 2,4-Dibromo-1-methoxyphenazine]
MIC [1, 10]: > 100 µM | MIC [1, 11]: > 36.9 µg/mL

CS(=O)(=O)Oc1c(Br)cc(Br)c2nc3ccccc3nc12 [Compound 29a]
MIC [1, 6]: > 100 µM | IC50 [2, 7]: > 100 µM | Phenotype ([3]; A. baumannii ATCC 19606): inactive | inhibition at 100 µM [3, 8]: 1 ± 2% | inhibition of growth at 100 µM [4, 9]: 3 ± 3%

NC[C@H]1O[C@H](O[C@H]2[C@H](O)[C@@H](O[C@H]3O[C@H](CO)[C@@H](O)[C@H](N)[C@H]3O)[C@H](N)C[C@@H]2N)[C@H](O)[C@@H](O)[C@@H]1O [Kanamycin, reference compound]
MIC [1, 10]: 1.56 to 6.25 µM | MIC [1, 11]: 0.76 to 3.03 µg/mL | MIC [5]: 0.78 µM to 1.56 µM and 0.38 µg/mL to 0.76 µg/mL
